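Five concentrations, 48 hours, 96-well plates. TGI marks complete inhibition of growth.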

Test in all cases: NCI anticancer screen, dose series, 48 h
The test system of experiment [1] is A549 NSCLC.
The test system of experiment [2] is SW-620 colon.
Experiment [3] has as its system LOX IMVI melanoma.
Experiment [4] concerns NCI-H226 lung.
The test system of experiment [5] is TK-10 renal.
For experiment [6], the system named is SK-MEL-2 melanoma.
Experiment [7] deals with HCT-116 colon.
In experiment [8] the test system is HT29 colon.
In experiment [9] the test system is KM12 colon.
Experiment [10] concerns M14 melanoma.

For `CC1=NNC(=O)C1C1C(=O)NN=C(c2c[nH]c3ccccc23)C1Br` (centres undefined), the TGI is above 100 µM in experiment [1]; above 100 µM in experiment [2]; above 100 µM in [3]; above 100 µM in experiment [4]; above 100 µM in experiment [5]; 84.8 µM in experiment [6]. Also, the TGI in experiment [7] is above 100 µM; in [8], above 100 µM; in experiment [9] it was 34.4 µM; in experiment [10], above 100 µM.

Regarding `COc1ccc(N2C(=O)C3c4[nH]c5ccc(OCc6ccccc6)cc5c4C4CCC(c5ccccc5)CC4C3C2=O)cc1` (centres undefined), the TGI in [1] was above 39 µM; in experiment [2], 4.61 µM; in experiment [3] it was above 100 µM; in experiment [4], above 83.8 µM; in [5] it was 42.2 µM; in [6] it was 68 µM. Also, the TGI in experiment [7] was above 100 µM; in [8], above 100 µM; in experiment [9], above 85.7 µM; in experiment [10], above 100 µM.

Turning to `CCOC(=O)c1c(C)n(Cc2ccc(Cl)cc2Cl)c2c1cc(O)c1[nH]c3c(c12)CCCC3`, the TGI in [1] was above 100 µM; in [2] it was above 100 µM; in [3] it was above 100 µM; in [4], 45.5 µM; in experiment [5], 45.4 µM; in experiment [6] it was 60.9 µM. Moreover, the TGI in [7] was above 100 µM; in [8], 68.2 µM; in experiment [9], 67.2 µM; in [10], 86.3 µM.

Take `OC1[C@@H]2[C@@H](O)CCCN2C[C@@H](O)[C@H]1O` (some centres undefined): the TGI in experiment [1], in experiment [2], in [3], in experiment [4], in [5] and in experiment [6] was above 100 µM throughout. The TGI in experiment [7], in [8], in experiment [9] and in experiment [10] was above 100 µM in each case.

As to `Cc1ccc2nc(SCC(=O)N=Nc3c(O)[nH]c4ccccc34)n(-c3ccccc3)c(=O)c2c1`, the TGI turned out to be 28.6 µM in experiment [1]; 61.4 µM in experiment [2]; 29.8 µM in [3]; 35.2 µM in [4]; 29.2 µM in [5]; 13.2 µM in experiment [6]. In addition, the TGI was 28.4 µM in experiment [7], 33.5 µM in experiment [8], 27.9 µM in experiment [9] and 29.8 µM in experiment [10].

As for `O=c1[nH]c(Nc2ccccc2)nc2c1ncn2CC(O)CSCCO` (centres undefined), the TGI in experiment [1], in [2], in experiment [3], in experiment [4], in [5] and in [6] was above 100 µM throughout. Also, the TGI in [7], in experiment [8], in experiment [9] and in experiment [10] was above 100 µM in each case.

For `CCN(CCCOc1ccccc1)CCN(CC)CCCOc1ccccc1`, the TGI was 28.7 µM in experiment [1]; 70.5 µM in experiment [2]; 27.9 µM in [3]; 46.8 µM in experiment [4]; 27.1 µM in [5]; 32.3 µM in experiment [6]. Besides, the TGI was above 100 µM in experiment [7], 27.4 µM in experiment [8], 27.8 µM in [9] and 34.6 µM in experiment [10].

For the molecule `Cc1ccc(C)c(NC(=O)C(=O)C(C(=O)c2ccc3ccccc3c2)C2OC(=O)c3ccccc32)c1` (centres undefined), the TGI amounted to 45.7 µM in experiment [1]; 29.4 µM in experiment [2]; 35.1 µM in experiment [3]; 17.2 µM in [4]; 64.6 µM in experiment [5]; 44.7 µM in experiment [6]. In addition, the TGI is 24.9 µM in experiment [7], above 100 µM in [8], 33.2 µM in experiment [9] and 28.8 µM in [10].

Take `O=C1[C@H](O)[C@@H]2C(O)O[C@H]3[C@@H]2N1C[C@H]3[Si](c1ccccc1)(c1ccccc1)c1ccccc1` (some centres undefined): the TGI in [1], in experiment [2], in [3], in experiment [4], in experiment [5] and in experiment [6] was above 100 µM each time. The TGI in experiment [7], in experiment [8], in [9] and in [10] was above 100 µM throughout.

In the case of `C[C@H](c1ccccc1)N1C(=O)[C@@H](O)[C@H]1[C@H](CO)OCc1ccccc1`, the TGI in experiment [1], in [2], in experiment [3], in [4], in experiment [5] and in experiment [6] was above 100 µM each time. Further, the TGI in [7], in experiment [8], in experiment [9] and in [10] was above 100 µM in each case.

With `COc1cccc(N2C(=O)CSC2c2cccc(Oc3ccccc3)c2)c1` (centres undefined), the TGI in experiment [1] was above 100 µM; in [2] it was above 100 µM; in experiment [3] it was 27.2 µM; in experiment [4] it was 69.1 µM; in [5], 25.3 µM; in experiment [6], 16.3 µM. In addition, the TGI in experiment [7] was 12 µM; in [8], 37.5 µM; in [9], above 100 µM; in experiment [10] it was 51 µM.

On to `O=[N+]([O-])c1ccccc1OCCOc1ccccc1[N+](=O)[O-]`, for which the TGI in experiment [1], in experiment [2], in experiment [3], in [4], in experiment [5] and in [6] was above 100 µM each time. The TGI in experiment [7], in experiment [8], in experiment [9] and in experiment [10] was above 100 µM in each case.

Turning to `O=S1(=O)c2ccccc2Oc2ccc(C(/C=N/O)=N/O)cc21`, the TGI is above 100 µM in experiment [1]; 41.5 µM in experiment [3]; above 100 µM in experiment [4]; 30.8 µM in experiment [5]; 70.7 µM in experiment [6]; above 100 µM in experiment [7]. In addition, the TGI in experiment [8], in experiment [9] and in experiment [10] was above 100 µM in each case.

For the molecule `Cc1ccc(Nc2nc3[nH]ccc3c(=O)[nH]2)cc1`, the TGI in experiment [1], in experiment [2], in experiment [3], in experiment [4], in [5] and in experiment [6] was above 100 µM in each case. In addition, the TGI in experiment [7], in experiment [8], in experiment [9] and in experiment [10] was above 100 µM in each case.

Regarding `O=C(O)CCc1nc2c(n1-c1ccccc1)C(=O)c1ccccc1C2=O`, the TGI in [1], in experiment [2], in experiment [3], in experiment [4], in experiment [5] and in experiment [6] was above 100 µM each time. Moreover, the TGI in experiment [7], in [8], in [9] and in experiment [10] was above 100 µM throughout.

As for `O=c1[nH]cc(NCCCl)c(=O)[nH]1`, the TGI in experiment [1], in experiment [2], in experiment [3], in [4], in [5] and in experiment [6] was above 100 µM throughout. The TGI in experiment [7], in experiment [8], in experiment [9] and in [10] was above 100 µM each time.

For the molecule `O=C(O)CC(Cc1ccccc1Cl)C(=O)O` (centres undefined), the TGI in experiment [1], in [2], in experiment [3], in [4], in experiment [5] and in experiment [6] was above 100 µM in each case. Also, the TGI in experiment [7], in experiment [8], in experiment [9] and in experiment [10] was above 100 µM in each case.

Consider `CCOC(=O)C(C#N)(Cc1c[nH]c2ccccc12)NC(C)=O` (centres undefined), for which the TGI in experiment [2], in experiment [3], in experiment [4], in experiment [5], in experiment [6] and in [7] was above 100 µM each time. Besides, the TGI in experiment [8], in [9] and in experiment [10] was above 100 µM throughout.

Regarding `CC(N=NNc1ccc(-c2nc3ccccc3[nH]2)cc1)C(=O)O` (centres undefined), the TGI in experiment [1], in experiment [2], in [3], in experiment [4], in [5] and in [6] was above 100 µM in each case. Also, the TGI in experiment [7], in [8], in experiment [9] and in [10] was above 100 µM each time.

As for `Cc1cc(C)nc(NS(=O)(=O)c2ccc(NC(=O)c3c4ccccc4nc4ccccc34)cc2)n1`, the TGI in experiment [1], in experiment [2], in [3], in [4], in experiment [5] and in experiment [6] was above 100 µM in each case. Further, the TGI in experiment [7], in experiment [8], in [9] and in experiment [10] was above 100 µM each time.

As for `COc1cc(/C=C2\C(=O)N(c3cccc([N+](=O)[O-])c3)C(c3ccccc3)S2(=O)=O)cc(OC)c1OC` (centres undefined), the TGI in [1], in experiment [2], in [3], in experiment [4], in [5] and in experiment [6] was above 100 µM each time. Further, the TGI in [7], in experiment [8], in experiment [9] and in [10] was above 100 µM throughout.

For `C/C(CC(O)(C(F)(F)F)C(F)(F)F)=N\NC(N)=O`, the TGI in experiment [1], in experiment [2], in experiment [3], in [4], in experiment [5] and in experiment [6] was above 10 µM throughout. Moreover, the TGI in [7], in experiment [8], in [9] and in experiment [10] was above 10 µM in each case.

For `C=CCC1(C#N)C(=S)NC2=C(C(=O)CC(C)(C)C2)C1c1ccccc1` (centres undefined), the TGI in experiment [1], in experiment [2], in [3], in experiment [4], in experiment [6] and in experiment [7] was above 100 µM in each case. Further, the TGI in [8], in experiment [9] and in [10] was above 100 µM throughout.

`c1ccc(-c2csc3c4ccccc4c4ccccc4[n+]23)cc1`: the TGI in experiment [1] came out at 19.5 µM; in experiment [2] it was 17.4 µM; in experiment [3], 16.9 µM; in experiment [4], 11.5 µM; in experiment [5], 43.6 µM; in experiment [6] it was 7.71 µM. Moreover, the TGI stood at 12.1 µM in experiment [7], 20.6 µM in experiment [8], 3.36 µM in [9] and 22 µM in experiment [10].

Take `COC(=O)[C@H]1C=NN[C@@H]1C(=O)N1[C@H]2CC3CC[C@@]2(CS1(=O)=O)C3(C)C`: the TGI in [1], in [2], in experiment [3], in experiment [4], in experiment [5] and in [6] was above 100 µM in each case. For the same molecule, the TGI in [7], in [9] and in experiment [10] was above 100 µM each time.

Take `C[C@@]1(O)C2CC3CC1(c1ccccc1)CC(/C3=N/O)/C2=N\O` (some centres undefined): the TGI in experiment [1], in experiment [2], in experiment [3], in experiment [4], in experiment [6] and in [7] was above 100 µM each time. Besides, the TGI in [8], in experiment [9] and in [10] was above 100 µM throughout.

For `Oc1cc(Cc2ccccc2)c(Cc2ccccc2)cc1O`, the TGI in experiment [1], in [2], in experiment [3], in experiment [4], in [6] and in [7] was above 10 µM throughout. The TGI in experiment [8], in [9] and in experiment [10] was above 10 µM each time.

The values are drawn from PubChem BioAssay (NCI).
